Data from PubChem BioAssay AID1918946 (Molecular Pharmacology Branch, DTP, NCI, 2023).

Tested on: 885512-296-R-J2-PDC complex spheroid viability
Test: Anticancer human tumor 885512-296-R-J2-PDC patient-derived breast carcinoma cell line growth inhibition
Conditions: for IC50: curve of first compound; for viability, T/C: stronger effect = lower value
How it was run: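 Multicellular complex spheroids of tumor cells with human endothelial cells (HUVEC) and mesenchymal stem cells; the LSD1 inhibitor iadademstat was combined with standard-of-care or investigational agents. Top concentration at or near clinical Cmax, half-log dilutions; final DMSO ≤0.25%.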

[1] = second compound 0.1 µM, first compound 0.000316 µM
[2] = second compound 0.1 µM, first compound 0.001 µM
[3] = second compound 0.1 µM, first compound 0.00316 µM
[4] = second compound 0.1 µM, first compound 0.01 µM
[5] = second compound 0.1 µM, first compound 0.0316 µM
[6] = second compound 0.1 µM, first compound 0.1 µM
[7] = second compound 0.316 µM, first compound 0.000316 µM
[8] = second compound 0.316 µM, first compound 0.001 µM
[9] = second compound 0.316 µM, first compound 0.00316 µM
[10] = second compound 0.316 µM, first compound 0.01 µM
[11] = second compound 0.316 µM, first compound 0.0316 µM
[12] = second compound 0.316 µM, first compound 0.1 µM
[13] = second compound 1 µM, first compound 0.000316 µM
[14] = second compound 1 µM, first compound 0.001 µM
[15] = second compound 1 µM, first compound 0.00316 µM
[16] = second compound 1 µM, first compound 0.01 µM
[17] = second compound 1 µM, first compound 0.0316 µM
[18] = second compound 1 µM, first compound 0.1 µM
[19] = second compound 3.16 µM, first compound 0.000316 µM
[20] = second compound 3.16 µM, first compound 0.001 µM
[21] = second compound 3.16 µM, first compound 0.00316 µM
[22] = second compound 3.16 µM, first compound 0.01 µM
[23] = second compound 3.16 µM, first compound 0.0316 µM
[24] = second compound 3.16 µM, first compound 0.1 µM
[25] = second compound 10 µM, first compound 0.000316 µM
[26] = second compound 10 µM, first compound 0.001 µM
[27] = second compound 10 µM, first compound 0.00316 µM
[28] = second compound 10 µM, first compound 0.01 µM
[29] = second compound 10 µM, first compound 0.0316 µM
[30] = second compound 10 µM, first compound 0.1 µM
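Further: spheroids exposed to agents for 7 days before viability read.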

| SMILES | IC50 (second compound 0.1 µM) [nM] | IC50 (second compound 0.316 µM) [nM] | IC50 (second compound 1 µM) [nM] | IC50 (second compound 3.16 µM) [nM] | IC50 (second compound 10 µM) [nM] | viability, T/C [3] [%] | viability, T/C [4] [%] | viability, T/C [5] [%] | viability, T/C [6] [%] | viability, T/C [9] [%] | viability, T/C [10] [%] | viability, T/C [11] [%] | viability, T/C [12] [%] | viability, T/C [15] [%] | viability, T/C [16] [%] | viability, T/C [17] [%] | viability, T/C [18] [%] | viability, T/C [21] [%] | viability, T/C [22] [%] | viability, T/C [23] [%] | also measured |
| --- | --- | --- | --- | --- | --- | --- | --- | --- | --- | --- | --- | --- | --- | --- | --- | --- | --- | --- | --- | --- | --- |
| CC(C)CC(NC(=O)C(Cc1ccccc1)NC(=O)c1cnccn1)B(O)O (stereo not given) + NC1CC1c1ccc(-c2cccc(O)c2)cc1 | < 0.316 | < 0.316 | < 0.316 | < 0.316 | < 0.316 | 7.48 | 0.02 | 0.02 | 0.09 | 0.05 | 0.01 | 0.01 | 0.08 | 0.02 | 0.01 | 0.01 | 0.09 | 0.16 | 0.01 | 0.02 | viability, T/C [1]: 18.7%; viability, T/C [2]: 1.21%; viability, T/C [7]: 19%; viability, T/C [8]: 0.69%; viability, T/C [13]: 18.5%; viability, T/C [14]: 0.65%; viability, T/C [19]: 15.5%; viability, T/C [20]: 0.58%; viability, T/C [24]: 0.1%; viability, T/C [25]: 11.2%; viability, T/C [26]: 0.27%; viability, T/C [27]: 0.11%; viability, T/C [28]: 0.12%; viability, T/C [29]: 0.14%; viability, T/C [30]: 0.14% |
| CC(C)CC(NC(=O)CNC(=O)c1cc(Cl)ccc1Cl)B1OC(=O)CC(CC(=O)O)(C(=O)O)O1 (stereo not given) + NC1CC1c1ccc(-c2cccc(O)c2)cc1 | 4.92 | 5.16 | 5.08 | 4.23 | 3.35 | 75 | 10.1 | 1.77 | 0.48 | 79.6 | 10.3 | 2.04 | 0.45 | 78.6 | 9.38 | 1.61 | 0.42 | 65.7 | 8.61 | 1.75 | viability, T/C [1]: 125%; viability, T/C [2]: 126%; viability, T/C [7]: 130%; viability, T/C [8]: 113%; viability, T/C [13]: 132%; viability, T/C [14]: 116%; viability, T/C [19]: 121%; viability, T/C [20]: 103%; viability, T/C [24]: 0.31%; viability, T/C [25]: 82.8%; viability, T/C [26]: 87.5%; viability, T/C [27]: 52%; viability, T/C [28]: 5.61%; viability, T/C [29]: 1.05%; viability, T/C [30]: 0.22% |
| COc1cc(Nc2ncc3c(n2)-c2ccc(Cl)cc2C(c2c(F)cccc2OC)=NC3)ccc1C(=O)O + NC1CC1c1ccc(-c2cccc(O)c2)cc1 | < 3.16 | < 3.16 | < 3.16 | < 3.16 | < 3.16 | 32 | 34 | 17.9 | 23.5 | 30.3 | 35.4 | 20.9 | 21.7 | 33.5 | 35.8 | 20.4 | 21.6 | 27 | 29.8 | 19.8 | viability, T/C (second compound 0.1 µM, first compound 0.316 µM): 21.7%; viability, T/C (second compound 0.1 µM, first compound 1 µM): 20.1%; viability, T/C (second compound 0.316 µM, first compound 0.316 µM): 25.4%; viability, T/C (second compound 0.316 µM, first compound 1 µM): 19.1%; viability, T/C (second compound 1 µM, first compound 0.316 µM): 22.1%; viability, T/C (second compound 1 µM, first compound 1 µM): 19.6%; viability, T/C [24]: 13.2%; viability, T/C (second compound 3.16 µM, first compound 0.316 µM): 19.4%; viability, T/C (second compound 3.16 µM, first compound 1 µM): 15.4%; viability, T/C [27]: 15%; viability, T/C [28]: 20.2%; viability, T/C [29]: 14.2%; viability, T/C [30]: 8.64%; viability, T/C (second compound 10 µM, first compound 0.316 µM): 11.8%; viability, T/C (second compound 10 µM, first compound 1 µM): 12.7% |
